Measurements published in PMC8953565 (2022).
Each block holds one compound with its values, some of them ahead of it.

How the values were obtained:
[1] = tested on: FAM-MG-36-12 (DNA, aptamer) CCATGCGACGGACAGCACGTGTCACCGCGATCAGCC; test: graphene oxide FRET fluorescence recovery; details: 137 mM NaCl, 2.7 mM KCl, 1 mM CaCl2, 0.5 mM MgCl2; DPBS pH 7.4, room temperature; 10 nM aptamer on GO; compound at twice the MG concentration
[2] = tested on: FAM-MG-36-17 (DNA, aptamer) CGCAGCGCGGCAGACAGTCAGGCTCAGCACGTGGCA; test: graphene oxide FRET fluorescence recovery; details: 137 mM NaCl, 2.7 mM KCl, 1 mM CaCl2, 0.5 mM MgCl2; DPBS pH 7.4, room temperature; 10 nM aptamer on GO; compound at twice the MG concentration
[3] = tested on: FAM-MG-76-16-6A (DNA, aptamer) AAAAAAGTTCGTGGTGTGCTGGATGTCCACCCGACAGCCAGTCACGCGCATCGTACAGACCGTGACACATCCAGCAGCACGA; test: graphene oxide FRET fluorescence recovery; details: 137 mM NaCl, 2.7 mM KCl, 1 mM CaCl2, 0.5 mM MgCl2; DPBS pH 7.4, room temperature; 10 nM aptamer on GO; compound at twice the MG concentration
[4] = tested on: MG-36-12 (DNA, aptamer) CCATGCGACGGACAGCACGTGTCACCGCGATCAGCC; test: ITC; details: 137 mM NaCl, 2.7 mM KCl, 1 mM CaCl2, 0.5 mM MgCl2; DPBS pH 7.4, 25 °C; 2 mM MG into 5 μM aptamer; one-site model
[5] = tested on: MG-9 (DNA, aptamer) TCTCGCAACAGCCAGCGTCATGTGACCACGGAACCA; test: ITC; details: 137 mM NaCl, 2.7 mM KCl, 1 mM CaCl2, 0.5 mM MgCl2; DPBS pH 7.4, 25 °C; screen with 100 μM candidate and 10 mM MG; weak thermal variation
[6] = tested on: MG-22 (DNA, aptamer) CGCGCACAGACAGCGTCATGGCCACGTACAGTTCCT; test: ITC; details: 137 mM NaCl, 2.7 mM KCl, 1 mM CaCl2, 0.5 mM MgCl2; DPBS pH 7.4, 25 °C; screen with 100 μM candidate and 10 mM MG; weak thermal variation
[7] = tested on: MG-20 (DNA, aptamer) CGCACAGCAAGACAGCCAGTCAACAGCCGCGAATGT; test: ITC; details: 137 mM NaCl, 2.7 mM KCl, 1 mM CaCl2, 0.5 mM MgCl2; DPBS pH 7.4, 25 °C; screen with 100 μM candidate and 10 mM MG; weak thermal variation
[8] = tested on: MG-23 (DNA, aptamer) CGCTACGACAGACAGCGTCGAGCACACAACGTTGCG; test: ITC; details: 137 mM NaCl, 2.7 mM KCl, 1 mM CaCl2, 0.5 mM MgCl2; DPBS pH 7.4, 25 °C; screen with 100 μM candidate and 10 mM MG; weak thermal variation
[9] = tested on: MG-21 (DNA, aptamer) CCATGCAGCCAGCGTCCACCGTCCGTACAGTACGTG; test: ITC; details: 137 mM NaCl, 2.7 mM KCl, 1 mM CaCl2, 0.5 mM MgCl2; DPBS pH 7.4, 25 °C; screen with 100 μM candidate and 10 mM MG; weak thermal variation
[10] = tested on: MG-8 (DNA, aptamer) TGTGCCCACAACTCCAGTCACGTTCGTCCAGCTCAG; test: ITC; details: 137 mM NaCl, 2.7 mM KCl, 1 mM CaCl2, 0.5 mM MgCl2; DPBS pH 7.4, 25 °C; screen with 100 μM candidate and 10 mM MG; weak thermal variation
[11] = tested on: MG-2 (DNA, aptamer) AGCCCGAGCTGCAGCCAGAATGTGCCACGTGTACGT; test: ITC; details: 137 mM NaCl, 2.7 mM KCl, 1 mM CaCl2, 0.5 mM MgCl2; DPBS pH 7.4, 25 °C; screen with 100 μM candidate and 10 mM MG; weak thermal variation
[12] = tested on: MG-6 (DNA, aptamer) CGCAACGCGGCAACAGAGCACAGATCGCACAGACTG; test: ITC; details: 137 mM NaCl, 2.7 mM KCl, 1 mM CaCl2, 0.5 mM MgCl2; DPBS pH 7.4, 25 °C; screen with 100 μM candidate and 10 mM MG; weak thermal variation
[13] = tested on: MG-5 (DNA, aptamer) CCCCGACAGCCGGCACAATGTGTCTGCCACGGACGT; test: ITC; details: 137 mM NaCl, 2.7 mM KCl, 1 mM CaCl2, 0.5 mM MgCl2; DPBS pH 7.4, 25 °C; screen with 100 μM candidate and 10 mM MG; weak thermal variation
[14] = tested on: MG-13 (DNA, aptamer) ACGCATCGCGAACAGCCGTGCCGTGTCCACGTACAG; test: ITC; details: 137 mM NaCl, 2.7 mM KCl, 1 mM CaCl2, 0.5 mM MgCl2; DPBS pH 7.4, 25 °C; screen with 100 μM candidate and 10 mM MG; weak thermal variation
[15] = tested on: MG-1 (DNA, aptamer) CCGCCACAGGACAGCCAGTCTGATCGCCATGACGAC; test: ITC; details: 137 mM NaCl, 2.7 mM KCl, 1 mM CaCl2, 0.5 mM MgCl2; DPBS pH 7.4, 25 °C; screen with 100 μM candidate and 10 mM MG; weak thermal variation
[16] = tested on: MG-11 (DNA, aptamer) CATGCCCAACGACATGCAGCACGTGGCCATGCACAA; test: ITC; details: 137 mM NaCl, 2.7 mM KCl, 1 mM CaCl2, 0.5 mM MgCl2; DPBS pH 7.4, 25 °C; screen with 100 μM candidate and 10 mM MG; weak thermal variation
[17] = tested on: MG-10 (DNA, aptamer) CGCGCAGCGGCAGACAGTCAGACTGCGACGCACGTT; test: ITC; details: 137 mM NaCl, 2.7 mM KCl, 1 mM CaCl2, 0.5 mM MgCl2; DPBS pH 7.4, 25 °C; screen with 100 μM candidate and 10 mM MG; weak thermal variation
[18] = tested on: MG-15 (DNA, aptamer) CGGCCAGACGACAGCCAGTCACCGGACACGATCAGG; test: ITC; details: 137 mM NaCl, 2.7 mM KCl, 1 mM CaCl2, 0.5 mM MgCl2; DPBS pH 7.4, 25 °C; screen with 100 μM candidate and 10 mM MG; weak thermal variation
[19] = tested on: MG-36-17 (DNA, aptamer) CGCAGCGCGGCAGACAGTCAGGCTCAGCACGTGGCA; test: ITC; details: 137 mM NaCl, 2.7 mM KCl, 1 mM CaCl2, 0.5 mM MgCl2; DPBS pH 7.4, 25 °C; 2 mM MG into 5 μM aptamer; one-site model
[20] = tested on: MG-19 (DNA, aptamer) CGCAGACAGCCAGTCAGGGAGCGTCCAGTCCGACAC; test: ITC; details: 137 mM NaCl, 2.7 mM KCl, 1 mM CaCl2, 0.5 mM MgCl2; DPBS pH 7.4, 25 °C; screen with 100 μM candidate and 10 mM MG; weak thermal variation
[21] = tested on: MG-3 (DNA, aptamer) CGAGACACAGTCACGTGCATCCAGTCAGCATGCGTC; test: ITC; details: 137 mM NaCl, 2.7 mM KCl, 1 mM CaCl2, 0.5 mM MgCl2; DPBS pH 7.4, 25 °C; screen with 100 μM candidate and 10 mM MG; weak thermal variation
[22] = tested on: MG-4 (DNA, aptamer) TGCAACACAACAGCCAGTCATGCCGGTGCACAGTCA; test: ITC; details: 137 mM NaCl, 2.7 mM KCl, 1 mM CaCl2, 0.5 mM MgCl2; DPBS pH 7.4, 25 °C; screen with 100 μM candidate and 10 mM MG; weak thermal variation
[23] = tested on: MG-24 (DNA, aptamer) ACGCACGTACGGCCAGTCATATGCGCACCGCGTTCA; test: ITC; details: 137 mM NaCl, 2.7 mM KCl, 1 mM CaCl2, 0.5 mM MgCl2; DPBS pH 7.4, 25 °C; screen with 100 μM candidate and 10 mM MG; weak thermal variation
[24] = tested on: MG-14 (DNA, aptamer) CACCGCCAGGGACAGCCAGTCACGTAGCCCGGAACG; test: ITC; details: 137 mM NaCl, 2.7 mM KCl, 1 mM CaCl2, 0.5 mM MgCl2; DPBS pH 7.4, 25 °C; screen with 100 μM candidate and 10 mM MG; weak thermal variation
[25] = tested on: MG-36-16 (DNA, aptamer) CCACCCGACAGCCAGTCACGCGCATCGTACAGACCG; test: ITC; details: 137 mM NaCl, 2.7 mM KCl, 1 mM CaCl2, 0.5 mM MgCl2; DPBS pH 7.4, 25 °C; 2 mM MG into 5 μM aptamer; one-site model
[26] = tested on: MG-18 (DNA, aptamer) CCGCAGCACGGTCGTACAGCAGCTGCCACGGCATCC; test: ITC; details: 137 mM NaCl, 2.7 mM KCl, 1 mM CaCl2, 0.5 mM MgCl2; DPBS pH 7.4, 25 °C; screen with 100 μM candidate and 10 mM MG; weak thermal variation
[27] = tested on: MG-7 (DNA, aptamer) CGAGCCGAACGAGACGTCCAGTCCGTGCCCACGCAC; test: ITC; details: 137 mM NaCl, 2.7 mM KCl, 1 mM CaCl2, 0.5 mM MgCl2; DPBS pH 7.4, 25 °C; screen with 100 μM candidate and 10 mM MG; weak thermal variation

binding [1]: no | binding [2]: no | binding [3]: no
Structure (SMILES): CN(C)c1ccc(C(=C2C=CC(=[N+](C)C)C=C2)c2ccc(N(C)C)cc2)cc1

Kd [4]: 169.78 µM | binding [5]: no | binding [6]: no | binding [7]: no | binding [8]: no | binding [9]: no | binding [10]: no | binding [11]: no | binding [12]: no | binding [13]: no | binding [14]: no | binding [15]: no | binding [16]: no | binding [17]: no | binding [18]: no | Kd [19]: 102.46 µM | binding [20]: no | binding [21]: no | binding [22]: no | binding [23]: no | binding [24]: no | Kd [25]: 71.94 µM | binding [26]: no | binding [27]: no
Structure (SMILES): CN(C)c1ccc(C(=C2C=CC(=[N+](C)C)C=C2)c2ccccc2)cc1

binding [1]: no | binding [2]: no | binding [3]: no
Structure (SMILES): CN(C)c1ccc(C(c2ccccc2)c2ccc(N(C)C)cc2)cc1

binding [1]: no | binding [2]: no
Structure (SMILES): Cc1cc(C)nc(NS(=O)(=O)c2ccc(N)cc2)n1

binding [1]: no
Structure (SMILES): NN1CC(=O)NC1=O

binding [1]: no
Structure (SMILES): NN1CC(CN2CCOCC2)OC1=O (stereo not shown)

binding [1]: no
Structure (SMILES): NN1CCOC1=O

binding [1]: no
Structure (SMILES): NNC(N)=O

binding [1]: no
Structure (SMILES): Nc1ccc(S(=O)(=O)Nc2ccccn2)cc1

binding [1]: no | binding [2]: no | binding [3]: no
Structure (SMILES): O=C(N[C@H](CO)[C@H](O)c1ccc([N+](=O)[O-])cc1)C(Cl)Cl
